Values quoted from earlier work in patent US9744163B2, “Compositions of a polyorthoester and an aprotic solvent” (Heron Therapeutics, Inc., priority 2013, dated 2017).

Water Miscibility (solubility in water): (8.3 g/100 ml)
SMILES: CCOC(C)=O [ethyl acetate]
